# From US4161598A, “1-Oxygenated-2,6-methano-3-benzazocines” (Sterling Drug Inc., priority 1977, dated 1979)
# Like-named read-outs stand apart in the source and are kept apart here.
# Columns and labels:
# [1] = Ziering reference; all tests other than writhing; cited from earlier work
# acetylcholine = experiment: Anti-acetylcholine Writhing Test; assay type: in vivo, mice; settings: Mus musculus, 20 min
# Protocol: This response has also been called writhing. Animals are pretreated with test compounds (20 minutes for both subcutaneous and oral routes) and observed for two minutes immediately following the administration of acetylcholine. Mice not responding during the two-minute observation period are scored protected while those responding one or more times are scored not protected. Test compounds are screened at doses of 75 and 25 mg./kg. subcutaneously or 150 and 50 mg./kg. orally. […] ED50 values for active compounds are estimated by probit analysis of quantal scores for 4 or more dosage levels using 15 animals per dose. Vehicle-pretreated control animals are tested concurrently with each run of 15 experimental animals.
# [2] = tested on: thermal stimulus applied to the tail; experiment: Tail-flick Agonist Test; assay type: in vivo, Rats; settings: for ED50: Rattus norvegicus, sc, 0.5 h; for activity as agonist: tail-flick test, result in words
# Protocol: Rats normally respond to a thermal stimulus applied to the tail by flicking their tails out from under the heat source. The intensity of the stimulus utilized is one which produces control response-times (CRT) of 2-4 seconds. Experimental response-times (ERT) are determined 30 minutes after subcutaneous injections and 60 minutes after oral medications. […] Therefore, the maximum possible increase (MPI) in response-time for any given animal is 20 minus the CRT. The average percent effect, or percent of the maximum possible increase (%MPI) obtained after any given test compound treatment is calculated by the formula [formula] […] ED50 or ED80 values of active compounds are obtained by the Miller and Tainter [Proc. Soc. Exptl.
# narcotics = experiment: Tail-flick Antagonist Test, narcotic not specified
# morphine [3] = experiment: morphine antagonist activity in the rat; settings: as the free base
# meperidine [4] = experiment: meperidine antagonist activity in the rat; settings: as the free base
# bradykinin = experiment: Anti-bradykinin Test; assay type: in vivo, Rats; settings: Rattus norvegicus, 2 h
# Protocol: This is a secondary evaluation of analgesic activity. […] The threshold dose of bradykinin required for production of the response is determined for each animal, and is readministered at fixed intervals during a two-hour period following the subcutaneous or oral administration of test compounds. In the control response marked rotation of the head and flexion of the forepaw are each scored +2, for a total response score (TRS) of +4. For post-medication scoring any decrease in head rotation or paw flexion from control is each scored +1, rather than +2, while no movement of either the head or paw is each scored 0. Therefore, the TRS following any bradykinin challenge can vary from 0 to 4. Animals whose TRSs are 0-0, 0-+1 or +1-0 after any two consecutive bradykinin challenges during the two-hour post-medication period are scored protected. […] ED50 values of active compounds are estimated by probit analysis of quantal scores from 4 or more dosage levels using 5 animals per dose. In addition the average TRSs obtained at each test interval with each treatment are plotted to permit examination of time-effect relationships and to provide a rough expression of drug effect using graded data. A vehicle-pretreated control animal is tested daily. Synthetic bradykinin from Sandoz Pharmaceuticals is diluted with saline to the proper concentrations for determination of threshold doses for producing the response. All bradykinin injections are made at a constant volume of 0.2 ml. per rat.
# analgesic activity = experiment: Analgesic activity, summary of the foregoing tests in experimental animals; assay type: in vivo; settings: summary of the foregoing test results
# Protocol: As stated above the compounds of Formula I are useful as analgesics and mostly also useful as narcotic antagonists as shown by tests in experimental animals. As presumptive tests of analgesia the anti-acetylcholine writhing, anti-phenylquinone writhing, anti-bradykinin and EDTA anti-nociceptive tests are carried out as follows: […]
# [5] = tested on: phenyl-p-quinone (phenylquinone); experiment: Anti-phenylquinone Writhing Test; assay type: in vivo, mice; settings: Mus musculus
# Protocol: This test is used to confirm the anti-acetylcholine writhing test. The ability of compounds to prevent phenyl-p-quinone (phenylquinone)-induced writhing in mice is determined in this test. […] Animals are pretreated with test compounds (15 minutes for subcutaneous route, 30 minutes for oral route) and observed for three one-minute intervals during the 5-12 minutes following administration. Mice responsing fewer than three times during the three one-minute observation periods are scored protected while those responding three or more times are scored not protected. Test compounds are screened using 10-14 animals per treatment, usually at doses of 75-100 mg./kg. subcutaneously or 150-200 mg./kg. orally. […] ED50 values for active compounds are estimated by probit analysis of quantal scores for 3-5 dosage levels using 14-30 animals per dose. Vehicle-pretreated control animals are tested daily.
# [6] = tested on: ethylenediaminetetraacetic acid (EDTA); experiment: EDTA Antinociceptive Test; assay type: in vivo, guinea pig; settings: Cavia porcellus, sc, 0.5 h; subcutaneous; reduces response score to 6 or less
# Protocol: This is also a secondary evaluation of analgesic activity. The test animal is the guinea pig. A threshold intradermal dose of ethylenediaminetetraacetic acid (EDTA) which can reproducibly elicit a cumulative response score of 12-18 discrete episodes of jumping, rearing, running, vocalization and biting or scratching at the site of injection within 40 seconds after challenge is determined for each animal. Thirty minutes after the administration of saline or test compound to 6-7 animals per dose, each animal is again challenged with its own threshold dose of EDTA. An effective drug dose is considered to be one which reduces the response score to 6 or less.
# meperidine [7] = experiment: Tail-flick Antagonist Test against meperidine; settings: Rattus norvegicus
# morphine [8] = experiment: Tail-flick Antagonist Test against morphine; settings: Rattus norvegicus
# phenazocine = experiment: Tail-flick Antagonist Test against phenazocine; settings: Rattus norvegicus
# [9] = sc, subcutaneous, form tested not given, read-out: Subcutaneous ED50 (95% Confidence Limits)
# [10] = subcutaneously, unit inferred, read-out: agonist ED50
# [11] = tail-flick antagonist test, result in words
# [12] = po, read-out: ED50 (95% Confidence Limits), Oral
# [13] = sc, read-out: ED50 (95% Confidence Limits), Subcutaneous
# [14] = po, oral, read-out: ED50 (95% Confidence Limits), Oral
# [15] = sc, subcutaneous, base, read-out: Subcutaneous ED50 (95% Confidence Limits)
# [16] = sc, subcutaneous, free base or acid addition salt, read-out: ED50 (95% Confidence Limits), Subcutaneous
# [17] = summary of the foregoing test results
# [18] = po, 0.5 h, read-out: ED50 (95% Confidence Limits), Oral
# [19] = sc, 0.25 h, read-out: ED50 (95% Confidence Limits), Subcutaneous
# [20] = subcutaneous, 120 Mg./Kg. of Base
smiles,measurement,setting,value
COc1ccc2c(c1)[C@]1(C)CCN(C)[C@@H]([C@@H]1C)[C@]2(C)O (relative stereo) [Compound 14],activity in all other tests,[1],inactive
COc1ccc2c(c1)[C@]1(C)CCN(C)[C@@H]([C@@H]1C)[C@@]2(O)c1ccccc1 (relative stereo) [Compound 13],activity in all other tests,[1],inactive
"C[C@H]1[C@H]2C(=O)c3ccc(O)cc3[C@]1(C)CCN2CC1CCC1 (relative stereo) [Example 35B, 1,2,3,4,5,6-hexahydro-1-oxo-3-cyclobutylmethyl-8-hydroxy-6(eq),11(ax)-dimethyl-2,6-methano-3-benzazocine]",ED50,acetylcholine; [9],3.9 mg/kg
same,ED50,[2]; [10],200 ± 49 mg/kg
same,activity as agonist,[2],weakly active
same,narcotic antagonist activity,narcotics; [11],inactive
COc1ccc2c(c1)[C@]1(C)CCN(C)[C@H](C2=O)[C@@H]1C (relative stereo) [Compound 12],activity against morphine,morphine [3],inactive
same,activity against meperidine,meperidine [4],weakly active
"C[C@H]1[C@H]2C(=O)c3ccc(O)cc3[C@]1(C)CCN2CCc1ccccc1 (relative stereo) [Example 34, 1,2,3,4,5,6-hexahydro-1-oxo-3-(2-phenylethyl)-8-hydroxy-6(eq),11(ax)-dimethyl-2,6-methano-3-benzazocine]",ED50,acetylcholine; [9],4.2 mg/kg
same,ED50,[2]; [10],56 ± 9.1 mg/kg
same,activity as agonist,[2],weakly active
same,narcotic antagonist activity,narcotics; [11],inactive
"CC[C@]12CCN(CC3CC3)[C@H](C(=O)c3ccc(O)cc31)[C@@H]2C (relative stereo) [Example 29, 1,2,3,4,5,6-hexahydro-1-oxo-3-cyclopropylmethyl-8-hydroxy-6(eq)-ethyl-11(ax)-methyl-2,6-methano-3-benzazocine]",ED50,bradykinin; [12],11 mg/kg
same,ED50,bradykinin; [13],0.053 mg/kg
same,ED50,acetylcholine; [14],7.6 mg/kg
same,ED50,acetylcholine; [15],0.045 mg/kg
same,ED50,acetylcholine; [16],0.074 mg/kg
same,ED50,[2]; read-out: Tail-flick Agonist Subcutaneous ED50,9 ± 10 mg/kg
same,ED50,"[2]; subcutaneously, read-out: agonist ED50",9 ± 10 mg/kg
same,narcotic activity,[2]; [17],no narcotic activity
same,activity as agonist,[2],active
same,analgesic activity,analgesic activity,strong analgesic activity
same,ED50,[5]; [18],9.1 mg/kg
same,ED50,[5]; [19],0.03 mg/kg
same,minimal effective dose,[6],0.025 mg/kg
same,narcotic antagonist activity,narcotics; [17],weak narcotic antagonist activity
same,narcotic antagonist activity,narcotics; [11],Inactive
"C[C@H]1[C@H]2C(=O)c3ccc(O)cc3[C@]1(C)CCN2CC1CC1 (relative stereo) [Example 1, 1,2,3,4,5,6-hexahydro-1-oxo-3-cyclopropylmethyl-8-hydroxy-6(eq),11(ax)-dimethyl-2,6-methano-3-benzazocine]",ED50,bradykinin; [12],10 mg/kg
same,ED50,bradykinin; [13],0.069 mg/kg
same,ED50,"meperidine [7]; po, 20 min, read-out: AD50 (95% Confidence Limits) Against Meperidine, Oral",78 mg/kg
same,ED50,"meperidine [7]; sc, 10 min, read-out: AD50 (95% Confidence Limits) Against Meperidine, Subcutaneous",7.2 mg/kg
same,ED50,"meperidine [7]; sc, 10 min, read-out: Subcutaneous AD50 (95% Confidence Limits) Against Meperidine",2 mg/kg
same,ED50,acetylcholine; [14],12 mg/kg
same,ED50,acetylcholine; [15],0.12 mg/kg
same,ED50,acetylcholine; [16],0.16 mg/kg
same,ED50,"acetylcholine; sc, subcutaneous, hydrochloride salt, read-out: Subcutaneous ED50 (95% Confidence Limits)",0.16 mg/kg
same,ED50,"acetylcholine; sc, subcutaneous, methanesulfonate salt, read-out: Subcutaneous ED50 (95% Confidence Limits)",0.16 mg/kg
same,"Percent Inhibition of Response, Oral","[2]; oral, 200 Mg./Kg. of Base",11.2%
same,dead,"[2]; oral, 200 Mg./Kg. of Base",1/6
same,righting reflex,"[2]; oral, 200 Mg./Kg. of Base",partial loss
same,salivation,"[2]; oral, 200 Mg./Kg. of Base",slight
same,"Percent Inhibition of Response, Subcutaneous",[2]; [20],2.3%
same,activity (observed side effect),[2]; [20],decreased
same,observed side effect,[2]; [20],atoxia
same,analgesic activity,analgesic activity,strong analgesic activity
same,ED50,[5]; [18],15.2 mg/kg
same,ED50,[5]; [19],0.16 mg/kg
same,minimal effective dose,[6],0.03 mg/kg
same,ED50,"morphine [8]; po, 20 min, read-out: AD50 (95% Confidence Limits) Against Morphine, Oral",91 mg/kg
same,ED50,"morphine [8]; sc, 10 min, read-out: AD50 (95% Confidence Limits) Against Morphine, Subcutaneous",4.9 mg/kg
same,ED50,"morphine [8]; sc, 10 min, read-out: Subcutaneous AD50 (95% Confidence Limits) Against Morphine",4 mg/kg
same,narcotic antagonist activity,narcotics; [17],weak narcotic antagonist activity
same,ED50,"phenazocine; po, 20 min, read-out: AD50 (95% Confidence Limits) Against Phenazocine, Oral",63 mg/kg
same,ED50,"phenazocine; sc, 10 min, read-out: AD50 (95% Confidence Limits) Against Phenazocine, Subcutaneous",5 mg/kg
same,ED50,"phenazocine; sc, 10 min, read-out: Subcutaneous AD50 (95% Confidence Limits) Against Phenazocine",4.3 mg/kg
